In PubChem BioAssay (NCI):
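Test compounds were applied to cells in 96-well plates for 48 hours at 5 doses. GI50: concentration for 50% inhibition of growth. TGI denotes the concentration required for complete inhibition of growth.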

Legend:
Experiment in all cases: DTP human tumour cell line panel, 48 h
ACHN renal = tested on: ACHN renal
HT29 colon = tested on: HT29 colon
MCF7 breast = tested on: MCF7 breast
MDA-MB-231 breast = tested on: MDA-MB-231 breast
NCI-H460 lung = tested on: NCI-H460 lung
RPMI-8226 leukemia = tested on: RPMI-8226 leukemia
SK-OV-3 ovarian = tested on: SK-OV-3 ovarian
SNB-75 CNS = tested on: SNB-75 CNS
TK-10 renal = tested on: TK-10 renal
UACC-62 melanoma = tested on: UACC-62 melanoma

| SMILES | TGI (ACHN renal) [µM] | TGI (HT29 colon) [µM] | TGI (MCF7 breast) [µM] | TGI (MDA-MB-231 breast) [µM] | TGI (NCI-H460 lung) [µM] | TGI (RPMI-8226 leukemia) [µM] | TGI (SK-OV-3 ovarian) [µM] | TGI (SNB-75 CNS) [µM] | TGI (TK-10 renal) [µM] | TGI (UACC-62 melanoma) [µM] | GI50 (ACHN renal) [µM] | GI50 (HT29 colon) [µM] | GI50 (MCF7 breast) [µM] | GI50 (MDA-MB-231 breast) [µM] | GI50 (NCI-H460 lung) [µM] | GI50 (RPMI-8226 leukemia) [µM] | GI50 (SK-OV-3 ovarian) [µM] | GI50 (SNB-75 CNS) [µM] | GI50 (TK-10 renal) [µM] | GI50 (UACC-62 melanoma) [µM] |
| --- | --- | --- | --- | --- | --- | --- | --- | --- | --- | --- | --- | --- | --- | --- | --- | --- | --- | --- | --- | --- |
| N#Cc1c(N)[nH]c2ccc(Sc3ccccc3)cc12 | 16 | 9.01 | 16.6 | 15.4 | 21.6 | 8.65 | 20.3 | 23 | 20.8 | 2.5 |  |  |  |  |  |  |  |  |  |  |
| Nc1ccc(-c2nc3ccccc3[nH]2)c2ccccc12 | 41.3 | 14.6 | > 100 | > 41.7 | > 100 | > 37 | 57.5 | 4.39 | > 100 | > 27.6 | 8.41 | 1.49 | 2.38 | 8.16 | 3.9 | 2.64 | 3.23 | 0.809 | 7.24 | 7.51 |
| CC1=CC(=O)C(O)C2(C)C1CC(O)C13COC4(C)C(OC(=O)C41)C(O)C23 (stereo not given) | 20.3 | > 100 | 21.9 | 43.9 | 62.7 | > 100 | 95.7 | > 100 | 44.3 | 32.3 | 4.75 | 9.02 | 3.95 | 15.4 | 5.2 | 17.3 | 16.5 | 22 | 12.1 | 8.02 |
| O=C(Oc1cccnc1)c1ccsc1Nc1ccnc(C(F)(F)F)c1 | 95.8 | 6.34 | > 100 | > 100 | > 100 | 51.8 | 29.5 | > 100 | 93.7 | > 100 | 17.7 | 2.39 | 3.51 | 6.03 | 17.7 | 6.45 | 4 | 25.2 | 4.91 | 44.8 |
| CC(C)=CCC/C(C)=C/CC/C(C)=C/CC/C=C(\C)CC/C=C(\C)CCC(=O)Nc1ccn(C2OC(CO)C(O)C2(F)F)c(=O)n1 (stereo not given) | 11.2 | 48.9 | 4.34 | 27.1 | 3.74 | 2.49 | 13.8 | 23.3 | 18.8 | 15.2 | 0.0266 | 0.594 | < 0.011 | 12.8 | 0.0444 | 0.122 | 0.0644 | 3 | 3.05 | 0.287 |
| O=c1[nH]cnc2c(C3NC(CO)C(O)C3O)c[nH]c12 (stereo not given) | > 100 | > 100 | > 100 | > 100 | > 100 | > 100 | > 100 | > 100 | > 100 | > 100 | > 100 | > 100 | > 100 | > 100 | > 100 | > 100 | > 100 | > 100 | > 100 | > 100 |
| CN1CCC(n2cnc(-c3ccc(F)cc3)c2-c2ccnc(N)n2)CC1 | > 25 | > 25 | > 25 | > 25 | > 25 | > 25 | > 25 | > 23.9 | > 25 | > 25 | 5.71 | 6.2 | 1.32 | 13.5 | 7.01 | 16.6 | 10.8 | 10 | 7.89 | 14.1 |
| CN1CCN(CC(O)COc2c(Br)c(Br)c(Br)c3c2OC(C)(C)C3)CC1 (stereo not given) | 24.7 | 4.54 | 14.5 | 6.8 | 10.6 | 4.44 | 38.4 | 27 | 37.7 | 3.29 | 11.3 | 2.16 | 3.33 | 2.56 | 3.1 | 1.8 | 18.4 | 7.79 | 15 | 1.83 |
| Cc1ccc(NC(=O)c2ccccc2C(=O)O)cc1C | > 100 | > 100 | > 100 | > 100 | > 100 | > 100 | > 100 | > 100 | > 100 | > 100 |  |  |  |  |  |  |  |  |  |  |
| CSC(=S)N/N=C(\C)c1cccc(C)n1 | 3.48 | > 47.3 | > 13.2 | 36.4 | 9.79 | 1.51 | 10.7 | 13.6 | 33.9 | 3.67 |  |  |  |  |  |  |  |  |  |  |
